Data on 44 compounds can be found in US7964624B1, “Inhibitors of serine proteases” (priority 2005, dated 2011).

Some results are limits rather than exact numbers.

The test addresses T1, HCV NS3 protease domain (Hepatitis C virus genotype 1b, UniProt Q9WMX2).
T1 construct: The first 181 amino acids of NS3 (residues 1027-1207 of the viral polyprotein); hexa-histidine (C); made in house; host or cells: E. coli BL21/DE3 pLysS
The test is described as follows: biochemical. The following applies: Enzyme Assay 1 (HCV NS3 Protease Domain Peptide Cleavage Assay) activity, apparent Ki class.

T1 sequence (Q9WMX2 1027-1207, other chains not shown): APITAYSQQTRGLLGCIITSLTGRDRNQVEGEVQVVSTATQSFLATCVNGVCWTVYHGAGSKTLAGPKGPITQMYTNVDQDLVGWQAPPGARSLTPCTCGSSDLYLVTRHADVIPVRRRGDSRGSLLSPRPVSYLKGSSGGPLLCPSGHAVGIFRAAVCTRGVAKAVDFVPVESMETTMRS

Turning to `COc1ccc(C2=NO[C@@]3(C2)C[C@@H](C(=O)NC(CC2CCC2)C(=O)C(N)=O)N(C(=O)[C@@H](NC(=O)OCc2ccccc2)C(C)(C)C)C3)c(OC)c1` (some centres unmarked) [Compound 424], the Ki fell in the range of 0.1 to 0.5 µM. On to `CCC[C@H](NC(=O)[C@@H]1C[C@]2(CC(c3cccc(-c4ccncc4)c3)=NO2)CN1C(=O)[C@@H](NC(=O)O[C@H]1CCOC1)C(C)(C)C)C(=O)C(=O)NC1CC1` [Compound 425], for which the Ki was greater than 0.5 µM. For `CCC[C@H](NC(=O)[C@@H]1C[C@]2(CC(c3cccc(Cl)c3)=NO2)CN1C(=O)[C@H](Cc1ccccc1)NC(=O)OCC)C(=O)C(=O)NC1CC1` [Compound 427], the Ki was greater than 0.5 µM.

As for `CCC[C@H](NC(=O)[C@@H]1C[C@@]2(CC(c3ccccc3)=NO2)CN1C(=O)[C@@H](NC(=O)[C@@H](NC(=O)c1cnccn1)C1CCCCC1)C(C)(C)C)C(=O)C(=O)NC1CC1` [Compound 428], the Ki lay within 0.1 to 0.5 µM.

For `CCC[C@H](NC(=O)[C@@H]1C[C@]2(CC(c3cccc(Cl)c3)=NO2)CN1C(=O)[C@@H](NC(=O)Cc1ccccc1C)C(C)(C)C)C(=O)C(=O)NC1CC1` [Compound 431], the Ki fell in the range of 0.1 to 0.5 µM.

As for `CCC[C@H](NC(=O)[C@@H]1C[C@]2(CC(c3cccc(Cl)c3)=NO2)CN1C(=O)[C@@H](NC(=O)N(C)CC)C(C)(C)C)C(=O)C(=O)NC1CC1` [Compound 432], the Ki is greater than 0.5 µM. The figure for `CCC[C@H](NC(=O)[C@@H]1C[C@]2(CC(c3cccc(OC)c3OC)=NO2)CN1C(=O)[C@@H](NC(=O)OCc1ccccc1)C(C)(C)C)C(=O)C(=O)NC1CC1` [Compound 434] is 0.1 to 0.5 µM; for `CCC[C@H](NC(=O)[C@@H]1C[C@]2(CC(c3cccc(Cl)c3)=NO2)CN1C(=O)[C@@H](NC(=O)c1c(OC)ccc2ccccc12)C(C)(C)C)C(=O)C(=O)NC1CC1` [Compound 435] it is 0.1 to 0.5 µM; for `CCC[C@H](NC(=O)[C@@H]1C[C@]2(CC(c3ccc(Cl)c(C)c3)=NO2)CN1C(=O)[C@@H](NC(=O)CC1CCCCC1)C(C)(C)C)C(=O)C(=O)NC1CC1` [Compound 436] it is 0.1 to 0.5 µM. For `CCC[C@H](NC(=O)[C@@H]1C[C@]2(CC(c3cccc(C)c3)=NO2)CN1C(=O)[C@@H](NC(=O)O[C@H]1CCOC1)C(C)(C)C)C(=O)C(=O)NC1CC1` [Compound 444], the Ki lay in the range of 0.1 to 0.5 µM. `CCC[C@H](NC(=O)[C@@H]1C[C@]2(CC(c3ccc4noc(-c5ccc(Cl)cc5)c4c3)=NO2)CN1C(=O)[C@@H](NC(=O)O[C@H]1CCOC1)C(C)(C)C)C(=O)C(=O)NC1CC1` [Compound 448]: the Ki fell in the range of 0.1 to 0.5 µM. The result for `CCC[C@H](NC(=O)[C@@H]1C[C@]2(CC(c3cccc(Cl)c3)=NO2)CN1C(=O)[C@@H](NC(=O)Cc1cc2c(cc1Cl)OCO2)C(C)(C)C)C(=O)C(=O)NC1CC1` [Compound 449] reads 0.1 to 0.5 µM; that for `CCC[C@H](NC(=O)[C@@H]1C[C@]2(CC(c3ccc4c(c3)OCO4)=NO2)CN1C(=O)[C@@H](NC(=O)[C@@H](NC(=O)c1cnccn1)C(C)(C)C)C(C)(C)C)C(=O)C(=O)NC1CC1` [Compound 450], less than 0.1 µM; that for `CCC[C@H](NC(=O)[C@@H]1C[C@]2(CC(c3ccc(F)c(C(F)(F)F)c3)=NO2)CN1C(=O)O[C@H]1CCOC1)C(=O)C(=O)NC1CC1` [Compound 451], greater than 0.5 µM. In the case of `C#CCCC(NC(=O)[C@@H]1C[C@]2(CC(c3cccc(Cl)c3)=NO2)CN1C(=O)[C@@H](NC(=O)CC1CCCCC1)C(C)(C)C)C(=O)C(=O)NC1CC1` (some centres unmarked) [Compound 453], the Ki was 0.1 to 0.5 µM. For `CCC[C@H](NC(=O)[C@@H]1C[C@]2(CC(c3cccc(Cl)c3)=NO2)CN1C(=O)[C@@H](NC(=O)CSc1cccc2cccnc12)C(C)(C)C)C(=O)C(=O)NC1CC1` [Compound 454], the Ki fell in the range of 0.1 to 0.5 µM. The figure for `CCC[C@H](NC(=O)[C@@H]1C[C@@]2(CC(c3cc(F)c(F)c(F)c3)=NO2)CN1C(=O)[C@@H](NC(=O)O[C@H]1CCOC1)C(C)(C)C)C(=O)C(=O)NC1CC1` [Compound 455] is greater than 0.5 µM; for `CCC[C@H](NC(=O)[C@@H]1C[C@]2(CC(c3ccc4c(c3)OCCO4)=NO2)CN1C(=O)[C@@H](NC(=O)O[C@H]1CCOC1)C(C)(C)C)C(=O)C(=O)NC1CC1` [Compound 456] it is 0.1 to 0.5 µM; for `CCC[C@H](NC(=O)[C@@H]1C[C@]2(CC(c3cccc(Cl)c3)=NO2)CN1C(=O)[C@@H](NC(=O)OCCc1ccccc1)C(C)(C)C)C(=O)C(=O)NC1CC1` [Compound 463] it is greater than 0.5 µM. The result for `CCC[C@H](NC(=O)[C@@H]1C[C@]2(CC(c3ccc4c(c3)OCO4)=NO2)CN1C(=O)c1ccc[nH]1)C(=O)C(=O)NC1CC1` [Compound 464] reads greater than 0.5 µM; that for `CCC[C@H](NC(=O)[C@@H]1C[C@]2(CC(c3cccc(Cl)c3)=NO2)CN1C(=O)[C@@H](NC(=O)OCc1ccc(C)cc1)C(C)(C)C)C(=O)C(=O)NC1CC1` [Compound 471], 0.1 to 0.5 µM; that for `CCC[C@H](NC(=O)[C@@H]1C[C@]2(CC(c3ccco3)=NO2)CN1C(=O)[C@@H](NC(=O)OC1CCOC1)C(C)(C)C)C(=O)C(=O)NC1CC1` (some centres unmarked) [Compound 472], greater than 0.5 µM. On to `CCC[C@H](NC(=O)[C@@H]1C[C@]2(CC(c3cccc(Cl)c3)=NO2)CN1C(=O)[C@@H](NC(=O)C(C)Cn1ccc(C)n1)C(C)(C)C)C(=O)C(=O)NC1CC1` (some centres unmarked) [Compound 474], for which the Ki is greater than 0.5 µM.

For `CCC[C@H](NC(=O)[C@@H]1C[C@]2(CC(c3cccc(Cl)c3)=NO2)CN1C(=O)[C@@H](NC(=O)CC(C)(O)C(F)(F)F)C(C)(C)C)C(=O)C(=O)NC1CC1` (some centres unmarked) [Compound 475], the Ki was in the range of 0.1 to 0.5 µM. The result for `CCC[C@H](NC(=O)[C@@H]1C[C@]2(CC(c3cccc(Cl)c3)=NO2)CN1C(=O)[C@@H](NC(=O)N[C@H](COC)C(C)(C)C)C(C)(C)C)C(=O)C(=O)NC1CC1` [Compound 477] reads less than 0.1 µM; that for `CCC[C@H](NC(=O)[C@@H]1C[C@]2(CC(c3ccc(Cl)s3)=NO2)CN1C(=O)[C@@H](NC(=O)CC1CCCCC1)C(C)(C)C)C(=O)C(=O)NC1CC1` [Compound 478], 0.1 to 0.5 µM.

In the case of `CCC[C@H](NC(=O)[C@@H]1C[C@]2(CC(c3cccc(C(=O)O)c3)=NO2)CN1C(=O)[C@@H](NC(=O)O[C@H]1CCOC1)C(C)(C)C)C(=O)C(=O)NC1CC1` [Compound 481], the Ki was greater than 0.5 µM.

On to `CCC[C@H](NC(=O)[C@@H]1C[C@]2(CC(c3cccc(Cl)c3)=NO2)CN1C(=O)[C@@H](NC(=O)CCC(=O)O)C(C)(C)C)C(=O)C(=O)NC1CC1` [Compound 484], for which the Ki lay within 0.1 to 0.5 µM.

For the compound `CCC[C@H](NC(=O)[C@@H]1C[C@]2(CC(c3cccc(Cl)c3)=NO2)CN1C(=O)[C@@H](NC(=O)CC1CC(=O)c2ccc(OC)cc21)C(C)(C)C)C(=O)C(=O)NC1CC1` (some centres unmarked) [Compound 487], the Ki was 0.1 to 0.5 µM.

Take `CCC[C@H](NC(=O)[C@@H]1C[C@]2(CC(c3ccc(Cl)c(C)c3)=NO2)CN1C(=O)[C@@H](NC(=O)CC1CCOCC1)C(C)(C)C)C(=O)C(=O)NC1CC1` [Compound 490]: the Ki fell in the range of 0.1 to 0.5 µM. Regarding `CCC[C@H](NC(=O)[C@@H]1C[C@]2(CC(c3cccc(Cl)c3)=NO2)CN1C(=O)[C@@H](NC(=O)NC(C)(C)C)C(C)(C)C)C(=O)C(=O)NC1CC1` [Compound 492], the Ki is less than 0.1 µM. Consider `CCC[C@H](NC(=O)[C@@H]1C[C@]2(CC(c3cc(Cl)c(OC)c(OC)c3)=NO2)CN1C(=O)[C@@H](NC(=O)CC1CCCCC1)C(C)(C)C)C(=O)C(=O)NC1CC1` [Compound 494], for which the Ki was less than 0.1 µM. Take `CCC[C@H](NC(=O)[C@@H]1C[C@]2(CC(c3nn(C)cc3Cl)=NO2)CN1C(=O)[C@@H](NC(=O)CC1CCCCC1)C(C)(C)C)C(=O)C(=O)NC1CC1` [Compound 495]: the Ki was greater than 0.5 µM.

As to `CCC[C@H](NC(=O)[C@@H]1C[C@]2(CC(c3cccc(Cl)c3)=NO2)CN1C(=O)[C@@H](NC(=O)NCc1cccnc1)C(C)(C)C)C(=O)C(=O)NC1CC1` [Compound 497], the Ki was 0.1 to 0.5 µM.

With `CCC[C@H](NC(=O)[C@@H]1C[C@]2(CC(c3cc(F)cc(C(F)(F)F)c3)=NO2)CN1C(=O)[C@@H](NC(=O)O[C@H]1CCOC1)C(C)(C)C)C(=O)C(=O)NC1CC1` [Compound 498], the Ki fell in the range of 0.1 to 0.5 µM. Take `CCC[C@H](NC(=O)[C@@H]1C[C@]2(CC(c3cccc(Cl)c3)=NO2)CN1C(=O)[C@@H](NC(=O)[C@H]1CC[C@H](OC)CC1)C(C)(C)C)C(=O)C(=O)NC1CC1` [Compound 503]: the Ki lay within 0.1 to 0.5 µM. The figure for `CCC[C@H](NC(=O)[C@@H]1C[C@]2(CC(c3cccc(Cl)c3)=NO2)CN1C(=O)[C@@H](NC(=O)CCc1cccnc1)C(C)(C)C)C(=O)C(=O)NC1CC1` [Compound 504] is 0.1 to 0.5 µM; for `CCC[C@H](NC(=O)[C@@H]1C[C@]2(CC(c3cccc(Cl)c3)=NO2)CN1C(=O)[C@@H](NC(=O)CCC1NC(=O)NC1=O)C(C)(C)C)C(=O)C(=O)NC1CC1` (some centres unmarked) [Compound 505] it is 0.1 to 0.5 µM; for `CCC[C@H](NC(=O)[C@@H]1C[C@]2(CC(c3cccc(Cl)c3)=NO2)CN1C(=O)[C@@H](NC(=O)Cn1ccc2ncccc21)C(C)(C)C)C(=O)C(=O)NC1CC1` [Compound 506] it is greater than 0.5 µM. For the compound `CCC[C@H](NC(=O)[C@@H]1C[C@@]2(CC(c3cccc(C(F)(F)F)c3)=NO2)CN1C(=O)[C@@H](NC(=O)O[C@H]1CCOC1)C(C)(C)C)C(=O)C(=O)NC1CC1` [Compound 509], the Ki was greater than 0.5 µM. As to `CCC[C@H](NC(=O)[C@@H]1C[C@]2(CC(c3ccc([N+](=O)[O-])cc3)=NO2)CN1C(=O)[C@@H](NC(=O)O[C@H]1CCOC1)C(C)(C)C)C(=O)C(=O)NC1CC1` [Compound 511], the Ki lay in the range of 0.1 to 0.5 µM. The result for `CCC[C@H](NC(=O)[C@@H]1C[C@]2(CC(c3ccccc3)=NO2)CN1C(=O)OCC1c2ccccc2-c2ccccc21)C(=O)C(=O)NC1CC1` [Compound 514] reads greater than 0.5 µM; that for `CCC[C@H](NC(=O)[C@@H]1C[C@]2(CC(c3cccc(Cl)c3)=NO2)CN1C(=O)[C@@H](NC(=O)OC1CCCOC1)C(C)(C)C)C(=O)C(=O)NC1CC1` (some centres unmarked) [Compound 515], 0.1 to 0.5 µM. The result for `CCC[C@H](NC(=O)[C@@H]1C[C@]2(CC(c3ccc(OC)cc3OC)=NO2)CN1C(=O)[C@@H](NC(=O)O[C@H]1CCOC1)C(C)(C)C)C(=O)C(=O)NC1CC1` [Compound 516] reads greater than 0.5 µM.
